From US20240002397A1, “3-AMINO PYRROLIDINE AND PIPERIDINE MACROCYCLIC OREXIN RECEPTOR AGONISTS” (Merck Sharp & Dohme LLC, priority 2020, published 2024)

The molecules below were run against T1, human OX2R (Homo sapiens, UniProt O43614) (assay: IPOne (IP-1) orexin receptor agonist assay in CHO cells expressing human OX2R). Settings: CHO, hOX2R IP-One; percentage of mean max effect of a reference compound at 1 uM with 100% activity.
T1 sequence (O43614 1-444): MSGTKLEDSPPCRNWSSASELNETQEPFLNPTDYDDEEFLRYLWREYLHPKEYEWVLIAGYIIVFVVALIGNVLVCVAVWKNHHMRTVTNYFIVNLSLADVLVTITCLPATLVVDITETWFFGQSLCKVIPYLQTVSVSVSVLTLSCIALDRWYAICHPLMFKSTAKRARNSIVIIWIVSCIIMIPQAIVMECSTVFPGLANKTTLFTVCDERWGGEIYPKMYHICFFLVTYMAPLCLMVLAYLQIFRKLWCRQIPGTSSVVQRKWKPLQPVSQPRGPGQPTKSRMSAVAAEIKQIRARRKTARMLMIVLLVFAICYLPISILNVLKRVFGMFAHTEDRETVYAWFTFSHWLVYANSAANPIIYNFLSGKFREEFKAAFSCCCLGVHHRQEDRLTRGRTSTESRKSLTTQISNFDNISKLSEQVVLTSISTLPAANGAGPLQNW
Procedure: In atypical experiment, the OX1 and OX2 receptor agonist activity is determined in accordance with the following general experimental method. Chinese hamster ovary (CHO) cells expressing human OX1R and/or the human OX2R were grown in Iscove's modified DMEM containing glutaMAX™, 1% G418, 100 U/mL penicillin, 100 μg/mL streptomycin and 10% heat-inactivated qualified fetal bovine serum (FBS). […] During this incubation, IP-one detection reagents were prepared (38:1:1 lysis buffer:D2:AB-cryptate reagents).
For each compound, data were fit to a four parameter logistic fit (ActivityBase software) and the EC50 was reported as the inflection point of the resulting curve.

| Emax | Compound |
| --- | --- |
| 99.5% | CCOc1cc2nc(c1)C1CCC(CC1)OCC1[C@@H](NS(C)(=O)=O)C[C@@H](C)N1C(=O)OCCO2 (some centres unmarked) [Example 77, N-((2^1S,2^4S,5^2R,5^3S,5^5R)-1^4-ethoxy-5^5-methyl-6-oxo-3,7,10-trioxa-1(2,6)-pyridina-5(2,1)-pyrrolidina-2(1,4)-cyclohexanacyclodecaphane-5^3-yl)methanesulfonamide] |
| 101% | C[C@@H]1C[C@H](NS(C)(=O)=O)C2COC3CCC(CC3)c3cc(C(F)(F)F)cc(n3)N(C)CCCOC(=O)N21 (some centres unmarked) [Example 89, N-((2^1S,2^4S,5^2R,5^3S,5^5R)-5^5,1^1-dimethyl-6-oxo-1^4-(trifluoromethyl)-3,7-dioxa-11-aza-1(2,6)-pyridina-5(2,1)-pyrrolidina-2(1,4)-cyclohexanacycloundecaphane-5^3-yl)methanesulfonamide] |
| 103% | C[C@@H]1C[C@H](NS(C)(=O)=O)C2COC3CCC(CC3)c3ccc(C(F)(F)F)c(n3)OCCCOC(=O)N21 (some centres unmarked) [Example 65, N-((2^1S,2^4S,5^2R,5^3S,5^5R)-5^5-methyl-6-oxo-1^5-(trifluoromethyl)-3,7,11-trioxa-1(2,6)-pyridina-5(2,1)-pyrrolidina-2(1,4)-cyclohexanacycloundecaphane-5^3-yl)methanesulfonamide] |
| 101% | COc1cc2nc(c1)C1CCC(CC1)OCC1[C@@H](NS(=O)(=O)CF)C[C@@H](C)N1C(=O)OCCCO2 (some centres unmarked) [Example 107, 1-fluoro-N-((2^1R,2^4R,5^2R, 5^3S,5^5R)-1^4-methoxy-5^5-methyl-6-oxo-3,7,11-trioxa-1(2,6)-pyridina-5(2,1)-pyrrolidina-2(1,4)-cyclohexanacycloundecaphane-5^3-yl)methanesulfonamide] |
| 103% | C[C@@H]1C[C@H](NS(C)(=O)=O)C2COC3CCC(CC3)c3cnc(F)c(c3)OCCCOC(=O)N21 (some centres unmarked) [Example 55, N-((2^1S,2^4S,5^2R,5^3S,5^5R)-1^6-fluoro-5^5-methyl-6-oxo-3,7,11-trioxa-1(3,5)-pyridina-5(2,1)-pyrrolidina-2(1,4)-cyclohexanacycloundecaphane-5^3-yl)methanesulfonamide] |
| 100% | CS(=O)(=O)N[C@H]1C[C@@H](CC(N)=O)N2C(=O)OCCOc3ccc(C(F)(F)F)c(n3)C3CCC(CC3)OCC12 (some centres unmarked) [Example 99, 2-((2^1R,2^4R,5^2R,5^3S,5^5S)-5^3-(methylsulfonamido)-6-oxo-1^3-(trifluoromethyl)-3,7,10-trioxa-1(2,6)-pyridina-5(2,1)-pyrrolidina-2(1,4)-cyclohexanacyclodecaphane-5^5-yl)acetamide] |
| 100% | CN(C)C[C@@H]1C[C@H](NS(C)(=O)=O)[C@@H]2CO[C@H]3CC[C@H](CC3)c3nc(ccc3C(F)(F)F)OCCOC(=O)N12 [Example 98, N-((2^1R,2^4R,5^2R,5^3S,5^5S)-5^5-((dimethylamino)methyl)-6-oxo-1^3-(trifluoromethyl)-3,7,10-trioxa-1(2,6)-pyridina-5(2,1)-pyrrolidina-2(1,4)-cyclohexanacyclodecaphane-5^3-yl)methanesulfonamide] |
| 104% | COc1cc2nc(c1)C1CCC(CC1)OCC1[C@@H](NS(=O)(=O)C(F)F)C[C@@H](C)N1C(=O)OCCCO2 (some centres unmarked) [Example 108, 1,1-difluoro-N-((2^1R,2^4R,5^2R,5^3S,5^5R)-14-methoxy-5^5-methyl-6-oxo-3,7,11-trioxa-1(2,6)-pyridina-5(2,1)-pyrrolidina-2(1,4)-cyclohexanacycloundecaphane-5^3-yl)methanesulfonamide] |
| 94.1% | CN(C)S(=O)(=O)N[C@H]1CCCN2C(=O)OCCCCOc3cccc(c3)C3CCC(CC3)OC[C@@H]12 [Example 26, N′-((2^1S,2^4S,5^2R,5^3S)-6-oxo-3,7,12-trioxa-5(2,1)-piperidina-1(1,3)-benzena-2(1,4)-cyclohexanacyclododecaphane-5^3-yl)-N,N-dimethy-sulfamide] |
| 101% | CS(=O)(=O)N[C@H]1CCCN2C(=O)CCCCOc3cccc(c3)C3CCC(CC3)OC[C@@H]12 [Example 29, N-((2^1S,2^4S,5^2R,5^3S)-6-oxo-3,11-dioxa-5(2,1)-piperidina-1(1,3)-benzena-2(1,4)-cyclohexanacycloundecaphane-5^3-yl)methanesulfonamide] |
| 98.4% | CS(=O)(=O)N[C@H]1C[C@@H](CO)N2C(=O)OCCCOc3cc(C(F)F)cc(n3)C3CCC(CC3)OCC12 (some centres unmarked) [Example 97, N-((2^1S,2^4S,5^2R,5^3S,5^5S)-1^4-(difluoromethyl)-5^5-(hydroxymethyl)-6-oxo-3,7,11-trioxa-1(2,6)-pyridina-5(2,1)-pyrrolidina-2(1,4)-cyclohexanacycloundecaphane-5^3-yl)methanesulfonamide] |
| 102% | C[C@@H]1C[C@H](NS(C)(=O)=O)C2COC3CCC(CC3)c3ccc(C(F)(F)F)c(n3)OCCOC(=O)N21 (some centres unmarked) [Example 64, N-((2^1S,2^4S,5^2R,5^3S,5^5R)-5^5-methyl-6-oxo-1^5-(trifluoromethyl)-3,7,10-trioxa-1(2,6)-pyridina-5(2,1)-pyrrolidina-2(1,4)-cyclohexanacyclodecaphane-5^3-yl)methanesulfonamide] |
| 101% | C[C@@H]1C[C@H](NS(C)(=O)=O)C2COC3CCC(CC3)c3cc(ccc3OC(F)(F)F)OCCCOC(=O)N21 (some centres unmarked) [Example 50, N-((2^1S,2^4S, 5^2R,5^3S,5^5R)-5^5-methyl-6-oxo-1^6-(trifluoro-methoxy)-3,7,11-trioxa-5(2,1)-pyrrolidina-1(1,3)-benzena-2(1,4)-cyclohexana-cyclounde-caphane-5^3-yl)methane-sulfonamide] |
| 98.5% | Cc1cc2nc(c1)C1CCC(CC1)OCC1[C@@H](NS(C)(=O)=O)C[C@@H](C)N1C(=O)OCCCO2 (some centres unmarked) [Example 67, N-((2^1S,2^4S,5^2R,5^3S,5^5R)-1^4,5^5-dimethyl-6-oxo-3,7,11-trioxa-1(2,6)-pyridina-5(2,1)-pyrrolidina-2(1,4)-cyclohexanacycloundecaphane-5^3-yl)methanesulfonamide] |
| 101% | C[C@@H]1C[C@H](NS(=O)(=O)N(C)C)[C@@H]2CO[C@H]3CC[C@H](CC3)c3cccc(c3)CCCCCC(=O)N12 [Example 12, N′-((2^1S,2^4S,5^2R,5^3S,5^5R)-5^5-methyl-6-oxo-3-oxa-5(2,1)-pyrrolidina-1(1,3)-benzena-2(1,4)cyclohexanacycloundecaphane-5^3-yl)-N,N-dimethyl-sulfamide] |
| 102% | C[C@@H]1C[C@H](NS(C)(=O)=O)[C@@H]2COC3CCC(CC3)c3ccc(F)c(n3)CCCCOC(=O)N12 [Example 110, N-((2^1S,2^4S,5^2R,5^3S,5^5R)-1^5-fluoro-5^5-methyl-6-oxo-3,7-dioxa-1(2,6)-pyridina-5(2,1)-pyrrolidina-2(1,4)-cyclohexanacycloundecaphane-5^3-yl)methanesulfonamide] |
| 101% | C[C@@H]1C[C@H](NS(=O)(=O)N(C)C)[C@@H]2COC3CCC(CC3)c3cccc(c3)OCCCCOC(=O)N12 [Example 11, N′-((2^1S,2^4S,5^2R,5^3S,5^5R)-5^5-methyl-6-oxo-3,7,12-trioxa-5(2,1)-pyrrolidina-1(1,3)-benzena-2(1,4)-cyclohexanacyclododecaphane-5^3-yl)-N,N-dimethyl-sulfamide] |
| 100% | C[C@@H]1C[C@H](NS(=O)(=O)N(C)C)[C@@H]2COC3CCC(CC3)c3cccc(c3)OCCC=CC(=O)N12 [Example 9, N′-((2^1S,2^4S,5^2R,5^3S, 5^5R)-5^5-methyl-6-oxo-3,11-dioxa-5(2,1)-pyrrolidina-1(1,3)-benzena-2(1,4)-cyclohexanacycloundecaphan-7-en-5^3-yl)-N,N-dimethyl-sulfamide] |
| 100% | C[C@@H]1C[C@H](NS(=O)(=O)N(C)C)C2COC3CCC(CC3)c3cccc(c3)OCCCC(=O)N21 (some centres unmarked) [Example 14, N′-((2^1S,2^4S,5^2R, 5^3S,5^5R)-5^5-methyl-6-oxo-3,10-dioxa-5(2,1)-pyrrolidina-1(1,3)-benzena-2(1,4)-cyclohexana-cyclodecaphane-5^3-yl)-N,N-methyl-sulfamide] |
| 97.2% | COc1cc2nc(c1F)OCCCOC(=O)N1C(COC3CCC2CC3)[C@@H](NS(C)(=O)=O)C[C@H]1C (some centres unmarked) [Example 75, N-((2^1S,2^4S,5^2R,5^3S,5^5R)-1^4-fluoro-1^3-methoxy-5^5-methyl-6-oxo-3,7,11-trioxa-1(2,6)-pyridina-5(2,1)-pyrrolidina-2(1,4)-cyclohexanacycloundecaphane-5^3-yl)methane sulfonamide] |
| 104% | CN(C)S(=O)(=O)N[C@H]1CCN2C(=O)CCCCOc3cccc(c3)[C@H]3CC[C@H](CC3)OC[C@@H]12 [Example 7, N′-((2^1S,2^4S,5^2R,5^3S)-6-oxo-3,11-dioxa-5(2,1)-pyrrolidina-1(1,3)-benzena-2(1,4)-cyclohexanacycloundecaphane-5^3-yl)-N,N-dimethyl-sulfamide] |
| 102% | COc1cc2nc(c1)C1CCC(CC1)OCC1[C@@H](NS(C)(=O)=O)C[C@@H](C)N1C(=O)OCCO2 (some centres unmarked) [Example 70, N-((2^1S,2^4S,5^2R,5^3S,5^5R)-1^4-methoxy-5^5-methyl-6-oxo-3,7,10-trioxa-1(2,6)-pyridina-5(2,1)-pyrrolidina-2(1,4)-cyclohexanacyclodecaphane-5^3-yl)methanesulfonamide] |

Same assay, conditions: hOX2R IP-One; percentage of mean max effect of a reference compound at 1 uM with 100% activity

| Emax (%) | Compound |
| --- | --- |
| 99.3% | CC1CC(NS(=O)(=O)N(C)C)C2COC3CCC(CC3)c3cccc(c3)OCCCOC(=O)N12 (centres unmarked) [Example 13] |
